From US20210283139A1, “BIFUNCTIONAL MOLECULES FOR TARGETING UCHL5” (AMPHISTA THERAPEUTICS LTD, priority 2018, published 2021)

Key:
Format in all cases: cell-based
Brd2 [1] = target: T1, Brd2 (Homo sapiens, UniProt P25440); experiment: Concentration-dependent BET degradation, immunoblot, HeLa cells; parameters: endogenous in cells; host or cells: HeLa; conditions: Brd2, 6 h treatment, 1 nM-10 μM, read-out: Dmax (%) maximum degradation observed
Description: (§1) Cell culture. HeLa (CCL-2) and HEK293 (CRL-1573) cells were purchased from ATCC and cultured in DMEM medium (Gibco) supplemented with 10% FBS, 100 μg/mL penicillin/streptomycin and L-glutamine. Cells were grown at 37° C. and 5% CO2, and were kept no longer than 30 passages. All cell lines were routinely tested for mycoplasma contamination using MycoAlert kit from Lonza.
(§2) Immunoblotting. proteins were separated by SDS-PAGE on NuPage 4-12% Bis-Tris gels, followed by transfer to Amersham Protran 0.45 NC nitrocellulose membrane (GE Healthcare) using wet transfer. Membranes were blocked using 5% w/v milk in Tris-buffered saline (TBS) with 0.1% Tween-20. Blots were probed (overnight at 4° C.) using anti-Brd2 (Abcam ab139690, 1:2,000 dilution), anti-Brd3 (Abcam ab50818, 1:500 dilution), and anti-Brd4 (Abcam ab128874, 1:1,000 dilution) primary antibodies, as appropriate. The next day, blots were washed with TBST and incubated (1 hr at RT) with anti-Tubulin hFAB-rhodamine (BioRad, 12004166) primary antibody, and either anti-rabbit IRDye 800CW (Licor 1:10,000 dilution) or anti-mouse IRDye 800CW (Licor 1:10,000 dilution) secondary antibody. Blots were developed using a Bio-Rad ChemiDoc MP Imaging System, and band quantification was performed using Image Studio software (LiCor). Band intensities were normalized to the tubulin loading control and reported as % of the average 0.1% DMSO vehicle intensity. Degradation data was plotted and analysed using Prism (Graphpad, version 8).
(§3) HeLa (5×10^5) and HEK293 (1×10^6) cells were seeded in standard 6-well plates (2 mL medium) overnight before treatment with compounds at the desired concentration (1 nM-10 μM), with a final DMSO concentration of 0.1% v/v. After 6 h treatment time, cells were washed with DPBS (Gibco) and lysed using 85 μL RIPA buffer (Sigma-Aldrich) supplemented with cOmplete Mini EDTA-free protease inhibitor cocktail (Roche) and benzonase. Lysates were clarified by centrifugation (20,000g, 10 min, 4° C.) and the total protein content of the supernatant was quantified using a Bradford colorimetric assay. Samples were prepared using equal amounts of total protein and LDS sample buffer (Invitrogen.
(§4) Representative blots in FIG. 3 show depletion of Brd2, Brd3 and Brd4 protein levels following treatment with increasing concentrations of representative compounds. Band intensities were normalized to the β-tubulin loading control and reported as % of the average 0.1% DMSO vehicle intensity, with each point representing mean±SEM of two independent experiments (n=2). Degradation data was plotted and analysed using Prism (Graphpad, version 8)

Brd3 [2] = target: T2, Brd3 (Homo sapiens, UniProt Q15059); experiment: as above; parameters: endogenous in cells; host or cells: HeLa; conditions: Brd3, 6 h treatment, 1 nM-10 μM
Description: as §1, §2, §3, §4

Brd4 [3] = target: T3, Brd4 (Homo sapiens, UniProt O60885); experiment: Negative SAR: Brd4 immunoblot in HEK293 cells, active vs negative control; conditions: HEK293, 1 μM, 6 h, three independent treatments
T3 construct: endogenous in cells; host or cells: HEK293, HAP1, MV4-11
Description: as §2
HEK293 (1×10^6) cells incubated with DMSO, 1 μM 05IB11 or 1 μM 05IB6 for 6 h with a final DMSO concentration of 0.1% v/v. Cells from three independent treatments (n=3) were lysed with RIPA buffer and immunoblotted for Brd4 and β-tubulin.

Brd4 (L) [4] = target: T4, Brd4 (L) (Homo sapiens, UniProt O60885); experiment: Concentration-dependent BET degradation, immunoblot, HEK293 cells; conditions: 6 h treatment, 1 nM-10 μM, read-out: Dmax (%) maximum degradation observed
T4 construct: endogenous in cells; host or cells: HEK293, HeLa
Description: as §1, §2, §3, §4

Brd4 (S) [5] = target: T5, Brd4 (S) (Homo sapiens, UniProt O60885); experiment: as above; conditions: 6 h treatment, 1 nM-10 μM, read-out: Dmax (%) maximum degradation observed
T5 construct: endogenous in cells; host or cells: HEK293, HeLa
Description: as §1, §2, §3, §4

Brd4 (L) [6] = target: T4, Brd4 (L); experiment: Concentration-dependent BET degradation, immunoblot, HeLa cells; conditions: 6 h treatment, 1 nM-10 μM, read-out: Dmax (%) maximum degradation observed
Description: as §1, §2, §3, §4

Brd4 (S) [7] = target: T5, Brd4 (S); experiment: as above; conditions: 6 h treatment, 1 nM-10 μM, read-out: Dmax (%) maximum degradation observed
Description: as §1, §2, §3, §4

Brd2 [8] = target: T1, Brd2; experiment: Concentration-dependent BET degradation, immunoblot, HEK293 cells; parameters: endogenous in cells; host or cells: HEK293; conditions: HEK293, Brd2, 6 h treatment, 1 nM-10 μM; read-out: Dmax (%) maximum degradation observed
Description: as §1, §2, §3, §4

Brd3 [9] = target: T2, Brd3; experiment: as above; parameters: endogenous in cells; host or cells: HEK293; conditions: HEK293, Brd3, 6 h treatment, 1 nM-10 μM
Description: as §1, §2, §3, §4

Brd4 [10] = target: T3, Brd4; experiment: Mechanistic evaluation of Brd4 degradation in HEK293 cells (degrasyn or I-BET726 pre-treatment); conditions: 6 h
Description: as §2
(§5) HEK293 (1×10^6) cells were seeded in standard 6-well plates (2 mL medium) overnight before pre-treatment with inhibitors (5 μM degrasyn or 1 μM I-BET726). After a 0.5 h pre-incubation time, cells were subsequently treated with vehicle, 0.1 μM MZ1 or 0.1 μM 05IB9, yielding a final overall DMSO concentration of 0.2% v/v. After 6 h incubation, cells were washed with DPBS (Gibco) and lysed using 85 μL RIPA buffer (Sigma-Aldrich) supplemented with cOmplete Mini EDTA-free protease inhibitor cocktail (Roche) and benzonase. Lysates were clarified by centrifugation (20,000 g, 10 min, 4° C.) and the total protein content of the supernatant was quantified using a Bradford colorimetric assay. Samples were prepared using equal amounts of total protein and LDS sample buffer (Invitrogen).

Brd4 [11] = target: T3, Brd4; experiment: Proteasome dependency of Brd4 degradation in HEK293 cells (bortezomib pre-treatment); conditions: HEK293, 1 μM, 6 h
Description: as §2
as §5, with “10” for “inhibitors (5”, “bortezomib.” for “degrasyn or 1 μM I-BET726).”, “1” for “0.1”, “05IB6,” for “05IB9,”

Brd4 [12] = target: T3, Brd4; experiment: Mechanistic evaluation of Brd4 degradation in HAP1 cells (bortezomib, degrasyn or I-BET726 pre-treatment); conditions: 6 h
Description: as §2
as §5, with “HAP1” for “HEK293”, “(10 μM bortezomib, 5” for “(5”
Representative blots from HAP1 lysates in FIG. 9 show depletion of Brd4 protein levels following 6 h treatment with 0.1 μM 05IB9 or MZ1, in the presence and absence of 5 μM degrasyn and 10 μM bortezomib. Brd4 band intensities were normalized to β-tubulin loading control and reported in FIG. 9B as % of the average 0.1% DMSO vehicle intensity. Each bar is mean±SEM of three independent experiments performed in duplicate (n=3). […] Furthermore, excess […] competes with 05IB9, resulting in reduced degradation of Brd4.

[13] = read-out: Dmax (%) maximum degradation observed

T2 sequence (Q15059 whole entry): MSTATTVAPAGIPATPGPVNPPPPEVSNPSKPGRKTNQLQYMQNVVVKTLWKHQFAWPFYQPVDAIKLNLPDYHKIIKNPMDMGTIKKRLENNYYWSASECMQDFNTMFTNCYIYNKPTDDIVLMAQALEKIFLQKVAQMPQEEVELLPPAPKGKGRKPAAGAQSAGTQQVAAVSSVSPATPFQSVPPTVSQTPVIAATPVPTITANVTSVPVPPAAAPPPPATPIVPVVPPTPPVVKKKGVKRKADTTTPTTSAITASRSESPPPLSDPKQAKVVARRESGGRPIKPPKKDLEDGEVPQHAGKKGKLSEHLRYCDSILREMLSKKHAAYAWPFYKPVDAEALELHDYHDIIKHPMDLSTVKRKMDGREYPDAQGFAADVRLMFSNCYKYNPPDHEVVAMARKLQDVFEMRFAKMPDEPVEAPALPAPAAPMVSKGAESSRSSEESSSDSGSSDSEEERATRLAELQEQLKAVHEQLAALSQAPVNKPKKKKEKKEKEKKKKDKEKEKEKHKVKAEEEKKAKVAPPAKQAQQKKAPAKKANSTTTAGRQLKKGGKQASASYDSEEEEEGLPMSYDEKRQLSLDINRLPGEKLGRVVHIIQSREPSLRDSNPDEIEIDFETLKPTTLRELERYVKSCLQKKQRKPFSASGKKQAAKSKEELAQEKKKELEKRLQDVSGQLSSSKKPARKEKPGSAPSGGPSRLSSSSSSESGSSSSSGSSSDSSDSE
T1 sequence (P25440 whole entry): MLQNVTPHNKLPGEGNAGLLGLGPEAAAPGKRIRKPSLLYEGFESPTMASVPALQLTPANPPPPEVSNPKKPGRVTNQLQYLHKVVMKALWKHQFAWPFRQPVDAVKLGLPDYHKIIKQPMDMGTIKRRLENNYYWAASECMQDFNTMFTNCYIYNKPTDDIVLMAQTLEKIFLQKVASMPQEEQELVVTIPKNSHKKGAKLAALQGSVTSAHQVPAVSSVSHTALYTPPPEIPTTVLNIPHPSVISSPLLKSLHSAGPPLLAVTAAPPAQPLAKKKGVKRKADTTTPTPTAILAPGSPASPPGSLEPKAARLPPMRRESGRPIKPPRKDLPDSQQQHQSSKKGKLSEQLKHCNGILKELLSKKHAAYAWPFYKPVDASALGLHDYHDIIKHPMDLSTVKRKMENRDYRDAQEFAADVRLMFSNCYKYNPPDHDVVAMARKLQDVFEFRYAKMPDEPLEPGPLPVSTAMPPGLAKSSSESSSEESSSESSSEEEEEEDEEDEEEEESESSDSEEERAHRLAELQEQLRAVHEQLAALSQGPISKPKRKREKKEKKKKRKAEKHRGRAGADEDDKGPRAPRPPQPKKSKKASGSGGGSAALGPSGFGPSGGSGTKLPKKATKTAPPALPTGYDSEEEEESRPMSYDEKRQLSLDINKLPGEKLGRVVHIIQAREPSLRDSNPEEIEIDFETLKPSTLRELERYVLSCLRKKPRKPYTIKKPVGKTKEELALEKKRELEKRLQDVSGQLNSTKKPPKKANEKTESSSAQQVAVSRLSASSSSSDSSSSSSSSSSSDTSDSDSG

| Compound | Dmax (Brd2 [1]) [%] | DC50 (Brd3 [2]) [nM] | Dmax (Brd3 [2]; [13]) [%] | Brd4 levels (Brd4 [3]) | Dmax (Brd4 (L) [4]) [%] | Dmax (Brd4 (S) [5]) [%] | Dmax (Brd4 (L) [6]) [%] | Dmax (Brd4 (S) [7]) [%] | Dmax (Brd2 [8]) [%] | DC50 (Brd3 [9]) [nM] | Dmax (Brd3 [9]; [13]) [%] | Brd4 degradation in the presence of degrasyn or I-BET726 (Brd4 [10]; HEK293, 0.1 μM compound, 0.5 h pre-treatment with 5 μM degrasyn or 1 μM I-BET726) | Brd4 protein levels (Brd4 [10]; HEK293, 0.1 μM) | Brd4 protein levels (Brd4 [11]) | Brd4 degradation in the presence of bortezomib or degrasyn (Brd4 [12]; HAP1, 0.1 μM compound, 0.5 h pre-treatment with 10 μM bortezomib or 5 μM degrasyn) | Brd4 protein levels (Brd4 [12]; HAP1, 0.1 μM) |
| --- | --- | --- | --- | --- | --- | --- | --- | --- | --- | --- | --- | --- | --- | --- | --- | --- |
| CCCC(NC(=O)/C=C/c1cccc(Br)n1)c1ccc(OCCOCCOCCOCCOCCOCCOCCNC(=O)c2ccc(-c3ccc4c(c3)[C@H](Nc3ccc(Cl)cc3)C[C@H](C)N4C(C)=O)cc2)cc1 (stereo partly shown) [Example 05IB11] | ≤ 25 | 51 to 500 | 26 to 50 | minimal depletion | ≤ 25 | 26 to 50 | ≤ 25 | ≤ 25 | ≤ 25 | ≤ 50 | ≤ 25 | – | – | – | – | – |
| Cc1ncsc1-c1ccc(CNC(=O)[C@@H]2C[C@@H](O)CN2C(=O)[C@@H](NC(=O)COCCOCCOCCNC(=O)C[C@@H]2N=C(c3ccc(Cl)cc3)c3c(sc(C)c3C)-n3c(C)nnc32)C(C)(C)C)cc1 [MZ1, reference compound] | – | – | – | – | – | – | – | – | – | – | – | only blocked by I-BET726 | depletion | depletion | only blocked by bortezomib | depletion |
